Assay results: patent US20230407304A1, “USE OF MICRORNA INHIBITION TO PREVENT AND TREAT OSTEOARTHRITIS AND OTHER INFLAMMATORY DISEASES” (VIRGINIA COMMONWEALTH UNIVERSITY, priority 2020, published 2023)

Experiments:
[1] = tested on: chondrocytes; details: in vitro studies (Scott; Tang et al.); cited from earlier work
[2] = tested on: resting zone and growth zone chondrocytes; assay: microRNA transfection of costochondral resting zone and growth zone chondrocytes; details: preliminary testing
[3] = tested on: articular chondrocytes; assay: miR-122 / miR-451 transfection of articular chondrocytes in presence and absence of IL-1β; assay type: cell-based, rat; details: miR transfection plus IL-1β stimulation
Source text: The following Examples with these microRNAs established their functions in articular chondrocytes in the presence and absence of the inflammatory cytokine IL-1β. Since IL-1β signaling is a major contributor of OA, a well-established model of creating an osteoarthritic phenotype in vitro is to stimulate cell cultures with this cytokine. This study first established that both these microRNAs were elevated in OA in the bilateral ACLT model.
The miR-451 miR (SEQ ID NO:10) was originally chosen as a control miR but it had surprising and very specific functions. […] A series of transfections and inhibition experiments with these microRNAs confirmed that these changes were due to the microRNAs themselves.

[4] = tested on: rat articular chondrocytes (rArCs); assay: miR mimic or inhibitor transfection of rArCs with or without TNF-α stimulation; assay type: cell-based
Experimental: FIGS. 7A-7F show assessment of miR-122 and miR-451 transfection or inhibition on TNF-α stimulated rat articular chondrocytes. rArCs were transfected at 60% confluence with miR-122, miR-451, miR-122-inhibitor (122-Inh), miR-451 inhibitor (451-Inh), or an empty vehicle (Lipo) for 24 hours followed by 24 hours with or without 10 ng/mL TNF-α stimulation. (FIG. 7A, 7D) Total DNA was measured from the cell monolayer and (FIG. 7B, 7E) MMP-13 and (FIG. 7C, 7F) PGE2 proteins were measured from the conditioned media. Groups not sharing a letter (A, B or C over bar) are statistically significant using an alpha=0.05.
Rat articular chondrocytes (rArCs) were isolated using a previously established protocol (see Scott, supra). Briefly, rArCs were isolated from femoral condyles and tibial plateaus from 100-125 g male Sprague Dawley rats. Cartilage was sterilely sliced from the articular surfaces using a surgical blade and placed in Dulbecco's modification of Eagle's medium with 1 g/L glucose, 50 U/mL penicillin and streptomycin (pen-strep) (DMEM). After removing DMEM, cartilage was incubated with 0.05% trypsin (20 mins, 37° C.), rinsed with DMEM (50 U/mL pen-strep, 20 mins, 37° C.), and then digested with sterile-filtered 0.03% collagenase type II solution (Worthington Biochemical, Lakewood, NJ) in Hank's balanced salt solution (16 hrs, 37° C.). Digestion was quenched with an equal volume of DMEM containing 10% fetal bovine serum (FBS) and 50 U/mL pen-strep, strained through a 40 μm strainer (Greiner Bio-one, North Carolina), spun down at 500×g for 10 mins and plated at a seeding density of 15,000 cells/cm^2. These cells are at passage 0. All experiments used cells at passage 1.
rArCs were plated at a seeding density of 15,000 cells/cm^2 and fed with DMEM supplemented with 10% FBS and 50 U/mL pen-strep. Media were changed 24 hours after plating and then every 48 hours. After treatments described below, conditioned media were collected, centrifuged at 1,000×g for 10 mins to remove cellular debris, aliquoted, and stored at −80° C. until assayed. Cell monolayers were rinsed twice with 1 mL of 1×PBS, lysed in 500 μL of 0.05% Triton X-100, and frozen for later DNA analysis. MMP-13 (ANASpec, Fremont, CA) and PGE2 (R&D Systems) were measured in the conditioned media by a microplate reader at ex/em 490 nm/520 nm, and 450 nm absorbance, respectively, in accordance with the manufacturer's directions. Data were normalized to the DNA content of the cell monolayer. Cell layers were thawed, and mechanically lysed by ultrasonication (40V, 10s/well) (VCX-120; Vibra-cell, Newtown, CT) and DNA was measured using QuantiFluor dsDNE system kit (Promega, Madson, WI) and quantified on a fluorescence plate reader at ex/em 504 nm/531 nm. […]

miR-451: mirVana miRNA mimic rno-miR-451-5p; AAACCGUUACCAUUACUGAGUU (AAACCGUUACCAUUACUGAGUU; listed as RNA, chemistry not given here)
apoptosis and cell viability in chondrocytes [1]: does not induce apoptosis or compromise cell viability | proliferation ([2]; transfected costochondral resting zone and growth zone chondrocytes): decrease in total DNA and proliferation | total DNA ([2]; transfected growth plate chondrocytes): decrease in total DNA and proliferation | IL-1β-stimulated MMP-13 [3]: exacerbated production in MMP-13 and PGE2 | IL-1β-stimulated PGE2 [3]: exacerbated production in MMP-13 and PGE2 | growth factor VEGF [3]: decreased the growth factor VEGF | inflammatory mediators, cytokines, chemokines (IL-1α, IL-2, IL-4, IL-6, GM-CSF, MIP-1A; RANTES for miR-122) [3]: increased the inflammatory mediators, cytokines, chemokines | change of total DNA on TNF-α treatment in transfected cells ([4]; 14.5 nM mimic 24 hours, then 10 ng/mL TNF-α 24 hours): did not change total DNA | total DNA after mimic transfection ([4]; 14.5 nM mimic, 24 hours, vs Lipo control): reduced total DNA compared to all groups
